Test results published in PubChem BioAssay AID328 (DTP/NCI, 2004).
Where “and” joins values, the source holds several entries; their conditions need not be identical. Equal entries are not always repeated. Inconclusive results and toxic doses are left out.

Tested on: BDF1 mice, P388 leukemia ip, median survival T/C
Assay: NCI In Vivo Anticancer Drug Screen. Data for tumor model P388 Leukemia (intraperitoneal) in B6D2F1 (BDF1) mice
Conditions: endpoint: median survival time, higher = longer survival
Procedure, shortened: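 Survival ratio, drug arm over vehicle arm, in mice with a transplanted tumour.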

[1] = dose: 6.25 mg/kg/injection, schedule: Q01DX009 (ip), vehicle: Klucel (hydroxypropylcellulose) (HPC)
[2] = dose: 12.5 mg/kg/injection, schedule: Q01DX009 (ip), vehicle: Klucel (hydroxypropylcellulose) (HPC)
[3] = dose: 25.0 mg/kg/injection, schedule: Q01DX009 (ip), vehicle: Klucel (hydroxypropylcellulose) (HPC)
[4] = dose: 100.0 mg/kg/injection, schedule: Q04DX003 (ip), vehicle: Klucel (hydroxypropylcellulose) (HPC)
[5] = dose: 200.0 mg/kg/injection, schedule: Q04DX003 (ip), vehicle: Klucel (hydroxypropylcellulose) (HPC)
[6] = dose: 400.0 mg/kg/injection, schedule: Q04DX003 (ip), vehicle: Klucel (hydroxypropylcellulose) (HPC)
[7] = dose: 25.0 mg/kg/injection, schedule: Q04DX003 (ip), vehicle: Klucel (hydroxypropylcellulose) (HPC)
[8] = dose: 50.0 mg/kg/injection, schedule: Q04DX003 (ip), vehicle: Klucel (hydroxypropylcellulose) (HPC)
[9] = dose: 50.0 mg/kg/injection, schedule: Q01DX005 (ip), vehicle: saline with Tween-80
[10] = dose: 50.0 mg/kg/injection, schedule: Q01DX009 (ip), vehicle: saline with Tween-80
[11] = dose: 100.0 mg/kg/injection, schedule: Q01DX009 (ip), vehicle: water
[12] = dose: 100.0 mg/kg/injection, schedule: Q04DX003 (ip), vehicle: water
[13] = dose: 200.0 mg/kg/injection, schedule: Q04DX003 (ip), vehicle: water
[14] = dose: 400.0 mg/kg/injection, schedule: Q01DX009 (ip), vehicle: water
[15] = dose: 400.0 mg/kg/injection, schedule: Q04DX003 (ip), vehicle: water

In the case of `N#Cc1cccc(C[P+](c2ccccc2)(c2ccccc2)c2ccccc2)c1`, the T/C [1] is reported as 86 % of control, the T/C [2] is reported as 95 % of control and the T/C (dose: 17.0 mg/kg/injection, schedule: Q04DX003 (ip), vehicle: Klucel (hydroxypropylcellulose) (HPC)) is reported as 95 % of control and 104 % of control. The T/C [3] was 104 % of control, the T/C (dose: 35.0 mg/kg/injection, schedule: Q01DX009 (ip), vehicle: Klucel (hydroxypropylcellulose) (HPC)) was 86 % of control and the T/C (dose: 40.0 mg/kg/injection, schedule: Q04DX003 (ip), vehicle: Klucel (hydroxypropylcellulose) (HPC)) was 95 % of control and 100 % of control. For the same molecule, the T/C (dose: 52.5 mg/kg/injection, schedule: Q04DX003 (ip), vehicle: Klucel (hydroxypropylcellulose) (HPC)) was 115 % of control.
`O=C(CC(c1ccccc1)N1CCN(c2ccccc2)CC1)c1ccccc1` (stereo not given) was tested, and the T/C [4] was 100 % of control, the T/C [5] was 100 % of control and the T/C [6] was 100 % of control.
In the case of `Nc1c(Br)cc2c(c1Br)Cc1cc(Cl)ccc1-2`, the T/C (dose: 6.0 mg/kg/injection, schedule: Q04DX003 (ip), vehicle: Klucel (hydroxypropylcellulose) (HPC)) is reported as 100 % of control, the T/C (dose: 12.0 mg/kg/injection, schedule: Q04DX003 (ip), vehicle: Klucel (hydroxypropylcellulose) (HPC)) is reported as 100 % of control and the T/C [3] is reported as 100 % of control. For the same molecule, the T/C [7] was 100 % of control, the T/C (dose: 50.0 mg/kg/injection, schedule: Q01DX009 (ip), vehicle: Klucel (hydroxypropylcellulose) (HPC)) was 87 % of control and 90 % of control and 100 % of control and the T/C [8] was 90 % of control. For the same molecule, the T/C [5] was 118 % of control and the T/C [6] was 95 % of control and 104 % of control.
`C[C@]12CCC(=O)C=C1CC[C@@H]1[C@@H]2C(=O)C[C@@]2(C)[C@H]1CC[C@]2(O)C(=O)CO` was tested, and the T/C (dose: 100.0 mg/kg/injection, schedule: Q01DX009 (ip), vehicle: Klucel (hydroxypropylcellulose) (HPC)) was 108 % of control, the T/C [4] was 110 % of control and the T/C (dose: 200.0 mg/kg/injection, schedule: Q01DX009 (ip), vehicle: Klucel (hydroxypropylcellulose) (HPC)) was 108 % of control. For the same molecule, the T/C [5] was 115 % of control, the T/C (dose: 400.0 mg/kg/injection, schedule: Q01DX009 (ip), vehicle: Klucel (hydroxypropylcellulose) (HPC)) was 87 % of control and the T/C [6] was 110 % of control.
With `CN(C)CCCn1c(=O)c2ccccc2c2ccccc21` the T/C (dose: 12.5 mg/kg/injection, schedule: Q01DX010 (ip), vehicle: saline) was 90 % of control, the T/C (dose: 25.0 mg/kg/injection, schedule: Q01DX010 (ip), vehicle: saline) was 90 % of control and the T/C (dose: 50.0 mg/kg/injection, schedule: Q01DX010 (ip), vehicle: saline) was 90 % of control.
With `O=C1Nc2c(Cl)cc(Cl)cc2/C1=N/N=C/c1ccccc1O` the T/C (dose: 12.5 mg/kg/injection, schedule: Q01DX005 (ip), vehicle: saline with Tween-80) was 95 % of control, the T/C (dose: 25.0 mg/kg/injection, schedule: Q01DX005 (ip), vehicle: saline with Tween-80) was 95 % of control and the T/C [9] was 95 % of control.
With `N#CN=CN1CC=C(c2ccc(Cl)cc2)CC1` the T/C [10] was 98 % of control, the T/C (dose: 100.0 mg/kg/injection, schedule: Q01DX009 (ip), vehicle: saline with Tween-80) was 93 % of control and the T/C (dose: 200.0 mg/kg/injection, schedule: Q01DX009 (ip), vehicle: saline with Tween-80) was 94 % of control.
For `COC12C(COC(=O)NCCO)C3=C(C(=O)C(C)=C(N)C3=O)N1CC1NC12` (stereo not given), the T/C (dose: 6.25 mg/kg/injection, schedule: Q01DX009 (ip), vehicle: saline) was 209 % of control, the T/C (dose: 12.5 mg/kg/injection, schedule: Q01DX009 (ip), vehicle: saline) was 228 % of control and 230 % of control and the T/C (dose: 25.0 mg/kg/injection, schedule: Q01DX009 (ip), vehicle: saline) was 231 % of control and 254 % of control.
In the case of `CC(=O)Nc1cc(N(CCOS(C)(=O)=O)CCOS(C)(=O)=O)ccc1N=O`, the T/C (dose: 0.7 mg/kg/injection, schedule: Q04DX003 (ip), vehicle: saline with Tween-80) is reported as 179 % of control, the T/C (dose: 1.1 mg/kg/injection, schedule: Q04DX003 (ip), vehicle: saline with Tween-80) is reported as 212 % of control and the T/C (dose: 1.6 mg/kg/injection, schedule: Q04DX003 (ip), vehicle: saline with Tween-80) is reported as 208 % of control. For the same molecule, the T/C (dose: 1.65 mg/kg/injection, schedule: Q04DX003 (ip), vehicle: saline with Tween-80) was 150 % of control and 191 % of control, the T/C (dose: 2.5 mg/kg/injection, schedule: Q04DX003 (ip), vehicle: saline with Tween-80) was 175 % of control and the T/C (dose: 3.75 mg/kg/injection, schedule: Q04DX003 (ip), vehicle: saline with Tween-80) was 104 % of control.
`CC[N+](CC)(CC)CCCCC[N+](CC)(CC)CC` was tested, and the T/C (dose: 6.25 mg/kg/injection, schedule: Q04DX003 (ip), vehicle: water) was 104 % of control, the T/C (dose: 12.5 mg/kg/injection, schedule: Q04DX003 (ip), vehicle: water) was 114 % of control and the T/C (dose: 25.0 mg/kg/injection, schedule: Q04DX003 (ip), vehicle: water) was 100 % of control and 114 % of control.
With `N=[N+]=CC(=O)CC(N)C(=O)O` (stereo not given) the T/C (dose: 100.0 mg/kg/injection, schedule: Q01DX001 (ip), vehicle: saline sonified) was 95 % of control, the T/C (dose: 200.0 mg/kg/injection, schedule: Q01DX001 (ip), vehicle: saline sonified) was 86 % of control and the T/C (dose: 400.0 mg/kg/injection, schedule: Q01DX001 (ip), vehicle: saline sonified) was 95 % of control.
In the case of `Nc1nc(N)c2cc(Sc3cccc(C(F)(F)F)c3)ccc2n1`, the T/C [10] is reported as 113 % of control.
With `O=C1c2ccccc2C(=O)N1c1cc(OCc2ccccc2)cc(OCc2ccccc2)c1` the T/C (dose: 0.78 mg/kg/injection, schedule: Q01DX009 (ip), vehicle: water) was 99 % of control and 103 % of control, the T/C (dose: 1.56 mg/kg/injection, schedule: Q01DX009 (ip), vehicle: water) was 96 % of control and 101 % of control and the T/C (dose: 3.12 mg/kg/injection, schedule: Q01DX009 (ip), vehicle: water) was 105 % of control and 120 % of control. The T/C (dose: 6.25 mg/kg/injection, schedule: Q01DX009 (ip), vehicle: water) was 96 % of control, the T/C (dose: 12.5 mg/kg/injection, schedule: Q01DX009 (ip), vehicle: water) was 95 % of control and 99 % of control and 112 % of control and the T/C (dose: 25.0 mg/kg/injection, schedule: Q01DX009 (ip), vehicle: water) was 99 % of control and 105 % of control. The T/C (dose: 50.0 mg/kg/injection, schedule: Q01DX009 (ip), vehicle: water) was 89 % of control and 117 % of control, the T/C (dose: 50.0 mg/kg/injection, schedule: Q04DX003 (ip), vehicle: water) was 94 % of control and the T/C [11] was 96 % of control. For the same molecule, the T/C [12] was 99 % of control, the T/C (dose: 200.0 mg/kg/injection, schedule: Q01DX009 (ip), vehicle: water) was 88 % of control and 115 % of control and the T/C [13] was 90 % of control. For the same molecule, the T/C [14] was 101 % of control and the T/C [15] was 99 % of control.
With `CC1CCC2(C)CCC3(C)C(=CCC4C5(C)CCC(O)C(C)(C)C5CCC43C)C2C1C` (stereo not given) the T/C [11] was 90 % of control, the T/C [12] was 90 % of control and the T/C [13] was 90 % of control. For the same molecule, the T/C [14] was 90 % of control and the T/C [15] was 90 % of control.
For `C=C1C(=O)OC2C3OC(C)(CCC(O)C3COC(C)=O)CC(OC(=O)/C(=C/C)COC(C)=O)C12` (stereo not given), the T/C (dose: 3.13 mg/kg/injection, schedule: Q01DX009 (ip), vehicle: Klucel (hydroxypropylcellulose) (HPC)) was 100 % of control, the T/C [1] was 112 % of control and the T/C [2] was 102 % of control. The T/C [3] was 121 % of control.
With `O=c1oc2ccc(Cl)cc2n1Cc1ccc(Cl)cc1` the T/C [9] was 99 % of control, the T/C (dose: 100.0 mg/kg/injection, schedule: Q01DX005 (ip), vehicle: saline with Tween-80) was 92 % of control and the T/C (dose: 200.0 mg/kg/injection, schedule: Q01DX005 (ip), vehicle: saline with Tween-80) was 92 % of control.
With `COC(=O)[C@H]1[C@H]2C[C@@H]3c4[nH]c5cc(OC)ccc5c4CCN3C[C@H]2C[C@@H](OC(=O)/C=C/c2cc(OC)c(OC)c(OC)c2)[C@@H]1OC` the T/C (dose: 0.63 mg/kg/injection, schedule: Q01DX009 (ip), vehicle: saline with Tween-80) was 90 % of control, the T/C (dose: 1.25 mg/kg/injection, schedule: Q01DX009 (ip), vehicle: saline with Tween-80) was 90 % of control and the T/C (dose: 2.5 mg/kg/injection, schedule: Q01DX009 (ip), vehicle: saline with Tween-80) was 90 % of control.
`Nc1ccccc1SC1CC(=O)N(c2ccc(I)cc2)C1=O` (stereo not given) was tested, and the T/C (dose: 12.5 mg/kg/injection, schedule: Q04DX003 (ip), vehicle: Klucel (hydroxypropylcellulose) (HPC)) was 95 % of control, the T/C (dose: 25.0 mg/kg/injection, schedule: Q01DX001 (ip), vehicle: Klucel (hydroxypropylcellulose) (HPC)) was 108 % of control and the T/C [7] was 95 % of control. The T/C (dose: 50.0 mg/kg/injection, schedule: Q01DX001 (ip), vehicle: Klucel (hydroxypropylcellulose) (HPC)) was 104 % of control, the T/C [8] was 100 % of control and the T/C (dose: 100.0 mg/kg/injection, schedule: Q01DX001 (ip), vehicle: Klucel (hydroxypropylcellulose) (HPC)) was 108 % of control. The T/C [4] was 112 % of control.
